The source of these data is US8445512B2, “Substituted quinoline-3-carboxamides as KCNQ2/3 modulators” (Gruenenthal GmbH, priority 2010, dated 2013).

One experiment addresses T1, KCNQ2/3 channels (Homo sapiens, UniProt O43525+O43526).
T1 construct: expressed in transfected cells
Nature of the experiment: Fluorescence assay using a voltage sensitive dye (fluorimetry). Format: cell-based. The note with it: CHO-K1 cells expressing KCNQ2/3 channels; for Emax: relative to retigabine = 100%, read-out: Fluorimetry % efficacy (retigabine = 100%). How it is done: Method I. Fluorescence Assay Using a Voltage Sensitive Dye (Fluorimetry)
[…] CHO-K1 cells expressing KCNQ2/3 channels are cultivated adherently at 37° C., 5% CO2 and 95% humidity in cell culture bottles (e.g. 80 cm^2 TC flasks, Nunc) with DMEM-high glucose (Sigma Aldrich, D7777) including 10% FCS (PAN Biotech, e.g. 3302-P270521) or alternatively MEM Alpha Medium (1×, liquid, Invitrogen, #22571), 10% fetal calf serum (FCS) (Invitrogen, #10270-106, heat-inactivated) and the necessary selection antibiotics.
Before being sown out for the measurements, the cells are washed with 1×DPBS buffer Ca^2+/Mg^2+-free (e.g. Invitrogen, #14190-094) and detached from the bottom of the culture vessel by using Accutase (PAA Laboratories, #L11-007) (incubation with Accutase for 15 min at 37° C.). The cell number is determined using a CASY™ cell counter (TCC, Schärfe System). Depending on the optimal density for each individual cell line, 20,000-30,000 cells/well/100 μl are seeded onto 96-well Corning™ CellBIND™ assay plates (Flat Clear Bottom Black Polystyrene Microplates, #3340). Freshly seeded cells are then left to settle for one hour at room temperature, followed by incubation for 24 hours at 37° C., 5% CO2 and 95% humidity.
The voltage-sensitive fluorescent dye from the Membrane Potential Assay Kit (Red™ Bulk format part R8123 for FLIPR, MDS Analytical Technologies™) is prepared by dissolving the contents of one vessel Membrane Potential Assay Kit Red Component A in 200 ml of extracellular buffer (ES buffer, 120 mM NaCl, 1 mM KCl, 10 mM HEPES, 2 mM CaCl2, 2 mM MgCl2, 10 mM glucose; pH 7.4). After removal of the nutrient medium, the cells are washed once with 200 μl of ES buffer, then loaded for 45 min at room temperature in 100 μl of dye solution in the dark.
Fluorescence measurements are carried out in a BMG Labtech FLUOstar™, BMG Labtech NOVOstar™ or BMG Labtech POLARstar™ instrument (525 nm excitation, 560 nm emission, Bottom Read mode). After incubation with the dye, 50 μl of the test substances in the desired concentrations, or 50 μl of ES buffer for control purposes, are applied to the wells of the assay plate and incubated for 30 min at room temperature while being shielded from light. The fluorescence intensity of the dye is then measured for 5 min and the fluorescence value F1 of each well is thus determined at a given, constant time. 15 μl of a KCl solution are then added to each well (final concentration of potassium ions 92 mM). The change in fluorescence intensity is subsequently monitored until all the relevant values have been obtained (mainly 5-30 min). At a given time post KCl application, a fluorescence value F2 is determined, in this case at the time of the fluorescence peak.
For calculation, the fluorescence intensity F2 is corrected for the fluorescence intensity F1, and the activity (ΔF/F) of the target compound on the potassium channel is determined as follows:
In order to determine whether a substance has agonistic activity,
[formula] can be related to
[formula] of control wells.
[formula] is determined by adding to the well only the buffer solution instead of the test substance, determining the value F1K of the fluorescence intensity, adding the potassium ions as described above, and measuring a value F2K of the fluorescence intensity. F2K and F1K are then calculated as follows: […]
A substance has an agonistic activity on the potassium channel if
[formula] is greater than
Independently of the comparison of
[formula] it is possible to conclude that a target compound has agonistic activity if
(§1) [formula] increases dose dependently. Calculations of EC50 and IC50 values are carried out with the aid of ‘Prism v4.0’ software (GraphPad Software™) Method II. Low-Intensity Tail Flick Test (Rat)

Experiment [1] relates to withdrawal reflex of the rat tail (tail flick) in response to a radiant heat beam. Nature of the experiment: Low-intensity tail flick test (rat). The experiment is classed as in vivo. The note with it: po, peroral, read-out: Low intensity tail flick, rat, peroral, % MPE (dose [mg/kg]). How it is done:
as §1
In the low-intensity tail flick test, the determination of the antinociceptive effect of the compounds according to the invention towards an acute noxious thermal stimulus is carried out by measuring the withdrawal reflex of the rat tail (tail flick) in response to a radiant heat beam (analgesia meter; model 2011 of the company Rhema Labortechnik, Hofheim, Germany) according to the method described by D'Annour and Smith (J. Pharm. Exp. Ther. 72, 74 79 (1941). To this end, the rats were placed in a plexiglas restrainer, and a low-intensity radiant heat beam (48° C.) was focused onto the dorsal surface of the tail root. The stimulus intensity was adjusted to result in a mean pre-drug control withdrawal latency of about 7 s, thus also allowing a supraspinal modulation of the spinally mediated acute nociceptive reflex. A cutoff time of 30 s was applied to avoid tissue damage. Male Sprague-Dawley rats (Janvier, Le Genest St. Isle, Frankreich) with weights of 200-250 g were used. 10 rats were used per group. Before administration of a compound according to the invention, the animals were pre-tested twice in the course of five minutes and the mean of these measurements was calculated as the pre-test mean. The antinociceptive effect was determined at 20, 40 and 60 min after peroral compound administration. The antinociceptive effect was calculated based on the increase in the tail withdrawal latency according to the following formula and is expressed as percentage of the maximum possible effect (MPE [%]): MPE=[(T1−T0)/(T2−T0)]*100
In this, T0 is the control latency time before and T1 the latency time after administration of the compound, T2 is the cutoff time and MPE is the maximum possible effect. Employing variant analysis (repeated measures ANOVA) allowed testing of statistically significant differences between the compounds according to the invention and the vehicle group. The significance level was set to p≦0.05. To determine the dose dependency, the particular compound according to the invention was administered in 3-5 logarithmically increasing doses, including a threshold dose and a maximum effective dose, and the ED50 values were determined with the aid of regression analysis. The ED50 calculation was performed at the time of maximum efficacy (usually 20 min after administration of the compounds).

For `Cc1c(C(=O)NCc2cccc(F)c2)c(C2CC2)nc2cc(C(F)(F)F)ccc12` [Example 10, 2-Cyclopropyl-N-[(3-fluorophenyl)-methyl]-4-methyl-7-(trifluoromethyl)-quinoline-3-carboxylic acid amide], on KCNQ2/3 channels, the response was half-maximal at 91 nM (EC50) and the Emax turned out to be 182%. Also, in experiment [1], the inhibition in vivo at 6.81 mg/kg came to 43%.

Turning to `COCc1nc2cc(C(F)(F)F)ccc2c(C)c1C(=O)NCc1cccc(F)c1` [Example 15, N-[(3-fluorophenyl)-methyl]-2-(methoxymethyl)-4-methyl-7-(trifluoromethyl)-quinoline-3-carboxylic acid amide], at KCNQ2/3 channels, the EC50 – broadly, the concentration that produces a half-maximal response – was 635 nM and the Emax stood at 117%. In experiment [1], the inhibition in vivo at 10 mg/kg was 9%.

For the compound `Cc1c(C(=O)NCc2cccc(F)c2)c(C(C)C)nc2cc(C(F)(F)F)ccc12` [Example 8, N-[(3-Fluorophenyl)-methyl]-2-isopropyl-4-methyl-7-(trifluoromethyl)-quinoline-3-carboxylic acid amide], at KCNQ2/3 channels, the 50% effective concentration (EC50) came to 53 nM and the Emax worked out at 185%. In experiment [1], the inhibition in vivo at 10 mg/kg is 65%.

With `CCCc1nc2cc(C(F)(F)F)ccc2c(C)c1C(=O)NCc1ccc(F)cc1` [Example 3, N-[(4-fluorophenyl)-methyl]-4-methyl-2-propyl-7-(trifluoromethyl)-quinoline-3-carboxylic acid amide], at KCNQ2/3 channels, the EC50 is 43 nM and the Emax came to 126%. The inhibition in vivo at 10 mg/kg in experiment [1] was 51%.

On to `CCc1nc2cc(C(F)(F)F)ccc2c(C)c1C(=O)NCc1cccc(F)c1` [Example 6, 2-Ethyl-N-[(3-fluorophenyl)-methyl]-4-methyl-7-(trifluoromethyl)-quinoline-3-carboxylic acid amide], for which, on KCNQ2/3 channels, a half-maximal response (EC50) required 178 nM and the Emax came out at 177%. The inhibition in vivo at 6.81 mg/kg in experiment [1] is 51%.

For `COCc1nc2cc(C(F)(F)F)ccc2c(C)c1C(=O)NCc1ccc(F)cc1` [Example 16, N-[(4-Fluorophenyl)-methyl]-2-(methoxymethyl)-4-methyl-7-(trifluoromethyl)-quinoline-3-carboxylic acid amide], at KCNQ2/3 channels, the EC50 is 393 nM and the Emax worked out at 96%. Moreover, the inhibition in vivo at 10 mg/kg in experiment [1] was determined as 21%.

With `Cc1c(C(=O)NCc2ccc(F)cc2)c(C2CC2)nc2cc(C(F)(F)F)ccc12` [Example 9, 2-Cyclopropyl-N-[(4-fluorophenyl)-methyl]-4-methyl-7-(trifluoromethyl)-quinoline-3-carboxylic acid amide], on KCNQ2/3 channels, the concentration giving a half-maximal response (EC50) was 126 nM and the Emax was found to be 161%. The inhibition in vivo at 10 mg/kg in experiment [1] was found to be 15%.

With `Cc1c(C(=O)NCc2ccc(F)cc2)c(C(C)C)nc2cc(C(F)(F)F)ccc12` [Example 7, N-[(4-Fluorophenyl)-methyl]-2-isopropyl-4-methyl-7-(trifluoromethyl)-quinoline-3-carboxylic acid amide], at KCNQ2/3 channels, the EC50 was found to be 65 nM and the Emax turned out to be 181%. The inhibition in vivo at 10 mg/kg in experiment [1] was determined as 54%.

For the compound `Cc1c(C(=O)NCc2cccc(F)c2)c(CC(C)(C)C)nc2cc(C(F)(F)F)ccc12` [Example 18, 2-(2,2-dimethyl-propyl)-N-[(3-fluorophenyl)-methyl]-4-methyl-7-(trifluoromethyl)-quinoline-3-carboxylic acid amide], on KCNQ2/3 channels, the midpoint of the response, the EC50, lay at 92 nM and the Emax was determined as 187%.

In the case of `Cc1c(C(=O)NCc2ccc(F)cc2)c(C(C)C)nc2cc(C#N)ccc12` [Example 40, 7-Cyano-N-[(4-fluorophenyl)-methyl]-2-isopropyl-4-methyl-quinoline-3-carboxylic acid amide], on KCNQ2/3 channels, the response was half-maximal at 190 nM (EC50) and the Emax is 163%.

As for `CC(C)c1nc2cc(C(F)(F)F)ccc2cc1C(=O)NCc1cccc(F)c1` [Example 11, N-[(3-Fluorophenyl)-methyl]-2-isopropyl-7-(trifluoromethyl)-quinoline-3-carboxylic acid amide], on KCNQ2/3 channels, the EC50 came to 246 nM and the Emax was 166%.
